Data: paper PMC5086383, “Isolation and Physicochemical Characterization of Laccase from Ganoderma lucidum-CDBT1 Isolated from Its Native Habitat in Nepal” (BioMed Research International, 2016)

System: T1, laccase isozyme 3 (purified laccase from Ganoderma lucidum-CDBT1)
T1 construct: native secreted enzyme purified from culture medium (ammonium sulfate, DEAE Sepharose); 43 kDa by SDS-PAGE
Test: ABTS oxidation at […] nm, Lineweaver-Burk
Assay type: biochemical
Details: 0.1 M sodium acetate pH 5.0, room temperature (~25°C); ABTS 0.01 to 10 mM; co-substrate O2

CCn1c(=NN=c2sc3cc(S(=O)(=O)O)ccc3n2CC)sc2cc(S(=O)(=O)O)ccc21 [ABTS, 2,2′-azino-bis(3-ethylbenzothiazoline-6-sulfonic acid)]
Km: 110 µM
